Tested on: A549 cells
Experiment: Toxicity test with Cellomics Array Scan
Format: cell-based, human
Experimental: The toxicity of the zwitterionic QDQRs-17a and QDQRs-17b was tested using the Cellomics Array Scan. For the toxicity tests, A549 cells were plated on a 96-well plate and incubated with QDQR solutions in a concentration range of 25 to 500 nM. Cadmium chloride, which was used in a concentration range from 25 to 1,000 μM, was used as the positive control. The increase in the cadmium chloride concentration by a factor of 1,000 is due to the fact that a single QDQR of the tested samples contains about 8,200 cadmium atoms. Assuming that the totality of the nanoparticles dissolve and release the cadmium contained in them, the lowest concentration of 25 nM QDQRs used would correspond to a concentration of 205 μM cadmium chloride. After an incubation period of 16 hours, the cells were blended with a staining solution consisting of the cell nucleus dye Hoechst 33342 and the mitochondrial dye MitoTracker® Deep Red FM and then fixed with formaldehyde solution. The 96-well plates were then read out with the Cellomics Array Scan. A software was used to automatically determine the parameters number of cells, cell nucleus intensity and cell nucleus size using the intensity of the dye by Hoechst, and the transmembrane potential of the mitochondria on the basis of the mitochondrial dye. In addition, microscopic images of the cells were taken to control the number of cells and cell morphology.
For the toxicity tests, A549 cells were plated in culture medium on a 96-well plate (10,000 cells per well) and incubated overnight. When the medium had been sucked off, the samples to be tested (diluted with culture medium, 100 μL per well) were applied in different concentrations and incubated for 16 hours. The samples were then removed and the cells were mixed with 100 μL staining solution (final concentration: 75 nM MitoTracker® Deep Red and […] Hoechst 33342 in DMEM with 10% FCS) and incubated for a further 30 minutes. […] After 20 minutes, the fixing solution was sucked off and washed twice with DPBS before the samples were measured on the Cellomics Array Scan.

## [Cl][Cd][Cl] [cadmium chloride]
16 hours incubation
  morphological changes of the cells or cell nuclei (microscopic images): the number of cells decreases noticeably and they get globular
16 hours incubation, tested 25 to 1,000 μM
  concentration with toxic effect on the cells: ≥ 100 µM
16 hours, 100 μM or more
  number of cells per well, cell nucleus intensity and cell nucleus size: decreases significantly
